pIC50: −log10 of the molar value.
tested on: DU-145; assay: Cytotoxicity against human DU145 cells assessed as inhibition of cell viability after 24 hrs by CCK-8 assay; type: functional, cell-based; conditions: DU-145, 24 h

Row | SMILES | pIC50
1 | COc1cc(OC)cc(OCc2ccc(CCN3CCN(c4ccccc4C)CC3)cc2)c1 | 4.72
2 | COc1cc(OC)cc(OCc2ccc(CCN3CCN(c4ccccc4)CC3)cc2)c1 | 4.60
3 | COc1cc(OC)cc(OCc2ccc(CCN3CCN(c4ccccn4)CC3)cc2)c1 | 4.78
4 | COc1cc(OC)cc(OCc2ccc(CCN3CCN(Cc4ccccc4)CC3)cc2)c1 | 5.23
5 | COc1cc(OC)cc(OCc2ccc(CCN3CCN(c4ccc(C)cc4)CC3)cc2)c1 | 4.62
6 | COc1cc(OC)cc(OCc2ccc(CCN3CCN(c4cccc(C)c4)CC3)cc2)c1 | 4.54
7 | COc1cc(OC)cc(OCc2ccc(CCN3CCN(c4cc(C)ccc4C)CC3)cc2)c1 | 4.56
8 | COc1cc(OC)cc(OCc2ccc(CCN3CCN(c4ccccc4OC)CC3)cc2)c1 | 4.52
9 | CCOc1ccccc1N1CCN(CCc2ccc(COc3cc(OC)cc(OC)c3)cc2)CC1 | 4.57
10 | COc1ccc(N2CCN(CCc3ccc(COc4cc(OC)cc(OC)c4)cc3)CC2)cc1 | 4.72
11 | COc1cc(OC)cc(OCc2ccc(CCN3CCN(c4cccc(OC)c4)CC3)cc2)c1 | 4.77
12 | COc1cc(OC)cc(OCc2ccc(CCN3CCN(c4cc(Cl)ccc4OC)CC3)cc2)c1 | 4.57
13 | COc1cc(OC)cc(OCc2ccc(CCN3CCN(c4ccccc4F)CC3)cc2)c1 | 4.60
14 | COc1cc(OC)cc(OCc2ccc(CCN3CCN(c4ccc(F)cc4)CC3)cc2)c1 | 4.55
15 | COc1cc(OC)cc(OCc2ccc(CCN3CCN(c4ccc(F)cc4F)CC3)cc2)c1 | 4.62
16 | COc1cc(OC)cc(OCc2ccc(CCN3CCN(c4ccccc4Cl)CC3)cc2)c1 | 4.63
17 | COc1cc(OC)cc(OCc2ccc(CCN3CCN(c4ccc(Cl)cc4)CC3)cc2)c1 | 4.90
18 | COc1cc(OC)cc(OCc2ccc(CCN3CCN(c4cccc(Cl)c4)CC3)cc2)c1 | 4.57
19 | COc1cc(OC)cc(OCc2ccc(CCN3CCN(c4cccc(Cl)c4Cl)CC3)cc2)c1 | 4.52
20 | COc1cc(OC)cc(OCc2ccc(CCN3CCN(c4cc(Cl)ccc4C)CC3)cc2)c1 | 4.55
21 | COc1cc(OC)cc(OCc2ccc(CCN3CCN(c4ccc(Br)cc4)CC3)cc2)c1 | 4.53
22 | COc1cc(OC)cc(OCc2ccc(CCN3CCN(c4ccccc4C(F)(F)F)CC3)cc2)c1 | 4.41
23 | COc1cc(OC)cc(OCc2ccc(CCN3CCN(c4ccc(C(F)(F)F)cc4)CC3)cc2)c1 | 4.55
24 | COc1cc(OC)cc(OCc2ccc(CCN3CCN(c4ccc(C#N)cc4)CC3)cc2)c1 | 4.33
25 | COc1cc(OC)cc(OCc2ccc(CCN3CCN(c4ccccc4S(C)(=O)=O)CC3)cc2)c1 | 5.11
26 | COc1ccccc1N1CCN(CC(O)COc2cccc3ccccc23)CC1 (centres undefined) [NAFTOPIDIL] | 4.46

tested on: not listed separately; assay: Cytotoxicity against human RWPE1 cells assessed as inhibition of cell viability after 24 hrs by CCK-8 assay; type: cell-based; conditions: RWPE-1, 24 h

Row | SMILES | pIC50
27 | COc1cc(OC)cc(OCc2ccc(CCN3CCN(c4ccccc4C)CC3)cc2)c1 | 4.45
28 | COc1cc(OC)cc(OCc2ccc(CCN3CCN(c4ccccc4)CC3)cc2)c1 | < 4.30
29 | COc1cc(OC)cc(OCc2ccc(CCN3CCN(c4ccccn4)CC3)cc2)c1 | < 4.30
30 | COc1cc(OC)cc(OCc2ccc(CCN3CCN(Cc4ccccc4)CC3)cc2)c1 | < 4.30
31 | COc1cc(OC)cc(OCc2ccc(CCN3CCN(c4ccc(C)cc4)CC3)cc2)c1 | < 4.30
32 | COc1cc(OC)cc(OCc2ccc(CCN3CCN(c4cccc(C)c4)CC3)cc2)c1 | < 4.30
33 | COc1cc(OC)cc(OCc2ccc(CCN3CCN(c4cc(C)ccc4C)CC3)cc2)c1 | < 4.30
34 | COc1cc(OC)cc(OCc2ccc(CCN3CCN(c4ccccc4OC)CC3)cc2)c1 | 4.54
35 | CCOc1ccccc1N1CCN(CCc2ccc(COc3cc(OC)cc(OC)c3)cc2)CC1 | < 4.30
36 | COc1ccc(N2CCN(CCc3ccc(COc4cc(OC)cc(OC)c4)cc3)CC2)cc1 | < 4.30
37 | COc1cc(OC)cc(OCc2ccc(CCN3CCN(c4cccc(OC)c4)CC3)cc2)c1 | 4.40
38 | COc1cc(OC)cc(OCc2ccc(CCN3CCN(c4cc(Cl)ccc4OC)CC3)cc2)c1 | < 4.30
39 | COc1cc(OC)cc(OCc2ccc(CCN3CCN(c4ccccc4F)CC3)cc2)c1 | 4.45
40 | COc1cc(OC)cc(OCc2ccc(CCN3CCN(c4ccc(F)cc4)CC3)cc2)c1 | < 4.30
41 | COc1cc(OC)cc(OCc2ccc(CCN3CCN(c4ccc(F)cc4F)CC3)cc2)c1 | < 4.30
42 | COc1cc(OC)cc(OCc2ccc(CCN3CCN(c4ccccc4Cl)CC3)cc2)c1 | < 4.30
43 | COc1cc(OC)cc(OCc2ccc(CCN3CCN(c4ccc(Cl)cc4)CC3)cc2)c1 | < 4.30
44 | COc1cc(OC)cc(OCc2ccc(CCN3CCN(c4cccc(Cl)c4)CC3)cc2)c1 | < 4.30
45 | COc1cc(OC)cc(OCc2ccc(CCN3CCN(c4cccc(Cl)c4Cl)CC3)cc2)c1 | 4.44
46 | COc1cc(OC)cc(OCc2ccc(CCN3CCN(c4cc(Cl)ccc4C)CC3)cc2)c1 | 4.44
47 | COc1cc(OC)cc(OCc2ccc(CCN3CCN(c4ccc(Br)cc4)CC3)cc2)c1 | < 4.30
48 | COc1cc(OC)cc(OCc2ccc(CCN3CCN(c4ccccc4C(F)(F)F)CC3)cc2)c1 | < 4.30
49 | COc1cc(OC)cc(OCc2ccc(CCN3CCN(c4ccc(C(F)(F)F)cc4)CC3)cc2)c1 | < 4.30
50 | COc1cc(OC)cc(OCc2ccc(CCN3CCN(c4ccc(C#N)cc4)CC3)cc2)c1 | 4.34
51 | COc1cc(OC)cc(OCc2ccc(CCN3CCN(c4ccccc4S(C)(=O)=O)CC3)cc2)c1 | < 4.30
52 | COc1ccccc1N1CCN(CC(O)COc2cccc3ccccc23)CC1 (centres undefined) [NAFTOPIDIL] | < 4.30

tested on: not listed separately; assay: Cytotoxicity against human PC3 cells assessed as inhibition of cell viability after 24 hrs by CCK-8 assay; type: functional, cell-based; conditions: PC-3, 24 h

Row | SMILES | pIC50
53 | COc1cc(OC)cc(OCc2ccc(CCN3CCN(c4ccccc4C)CC3)cc2)c1 | 4.52
54 | COc1cc(OC)cc(OCc2ccc(CCN3CCN(c4ccccc4)CC3)cc2)c1 | 4.51
55 | COc1cc(OC)cc(OCc2ccc(CCN3CCN(c4ccccn4)CC3)cc2)c1 | 4.59
56 | COc1cc(OC)cc(OCc2ccc(CCN3CCN(Cc4ccccc4)CC3)cc2)c1 | 5.17
57 | COc1cc(OC)cc(OCc2ccc(CCN3CCN(c4ccc(C)cc4)CC3)cc2)c1 | 4.32
58 | COc1cc(OC)cc(OCc2ccc(CCN3CCN(c4cccc(C)c4)CC3)cc2)c1 | 4.51
59 | COc1cc(OC)cc(OCc2ccc(CCN3CCN(c4cc(C)ccc4C)CC3)cc2)c1 | 4.51
60 | COc1cc(OC)cc(OCc2ccc(CCN3CCN(c4ccccc4OC)CC3)cc2)c1 | 4.58
61 | CCOc1ccccc1N1CCN(CCc2ccc(COc3cc(OC)cc(OC)c3)cc2)CC1 | 4.57
62 | COc1ccc(N2CCN(CCc3ccc(COc4cc(OC)cc(OC)c4)cc3)CC2)cc1 | 4.48
63 | COc1cc(OC)cc(OCc2ccc(CCN3CCN(c4cccc(OC)c4)CC3)cc2)c1 | 4.60
64 | COc1cc(OC)cc(OCc2ccc(CCN3CCN(c4cc(Cl)ccc4OC)CC3)cc2)c1 | 4.57
65 | COc1cc(OC)cc(OCc2ccc(CCN3CCN(c4ccccc4F)CC3)cc2)c1 | 4.60
66 | COc1cc(OC)cc(OCc2ccc(CCN3CCN(c4ccc(F)cc4)CC3)cc2)c1 | 4.54
67 | COc1cc(OC)cc(OCc2ccc(CCN3CCN(c4ccc(F)cc4F)CC3)cc2)c1 | 4.45
68 | COc1cc(OC)cc(OCc2ccc(CCN3CCN(c4ccccc4Cl)CC3)cc2)c1 | 4.60
69 | COc1cc(OC)cc(OCc2ccc(CCN3CCN(c4ccc(Cl)cc4)CC3)cc2)c1 | 4.72
70 | COc1cc(OC)cc(OCc2ccc(CCN3CCN(c4cccc(Cl)c4)CC3)cc2)c1 | 4.51
71 | COc1cc(OC)cc(OCc2ccc(CCN3CCN(c4cccc(Cl)c4Cl)CC3)cc2)c1 | 4.73
72 | COc1cc(OC)cc(OCc2ccc(CCN3CCN(c4cc(Cl)ccc4C)CC3)cc2)c1 | 4.49
73 | COc1cc(OC)cc(OCc2ccc(CCN3CCN(c4ccc(Br)cc4)CC3)cc2)c1 | 4.59
74 | COc1cc(OC)cc(OCc2ccc(CCN3CCN(c4ccccc4C(F)(F)F)CC3)cc2)c1 | 4.40
75 | COc1cc(OC)cc(OCc2ccc(CCN3CCN(c4ccc(C(F)(F)F)cc4)CC3)cc2)c1 | 4.62
76 | COc1cc(OC)cc(OCc2ccc(CCN3CCN(c4ccc(C#N)cc4)CC3)cc2)c1 | 4.56
77 | COc1cc(OC)cc(OCc2ccc(CCN3CCN(c4ccccc4S(C)(=O)=O)CC3)cc2)c1 | 5.03
78 | COc1ccccc1N1CCN(CC(O)COc2cccc3ccccc23)CC1 (centres undefined) [NAFTOPIDIL] | 4.38

tested on: LNCaP; assay: Cytotoxicity against human LNCAP cells assessed as inhibition of cell viability after 24 hrs by CCK-8 assay; type: functional, cell-based; conditions: not given

Row | SMILES | pIC50
79 | COc1cc(OC)cc(OCc2ccc(CCN3CCN(c4ccccc4C)CC3)cc2)c1 | 4.45
80 | COc1cc(OC)cc(OCc2ccc(CCN3CCN(c4ccccc4)CC3)cc2)c1 | < 4.30
81 | COc1cc(OC)cc(OCc2ccc(CCN3CCN(c4ccccn4)CC3)cc2)c1 | 4.37
82 | COc1cc(OC)cc(OCc2ccc(CCN3CCN(Cc4ccccc4)CC3)cc2)c1 | 5.22
83 | COc1cc(OC)cc(OCc2ccc(CCN3CCN(c4ccc(C)cc4)CC3)cc2)c1 | 4.45
84 | COc1cc(OC)cc(OCc2ccc(CCN3CCN(c4cccc(C)c4)CC3)cc2)c1 | 5.63
85 | COc1cc(OC)cc(OCc2ccc(CCN3CCN(c4cc(C)ccc4C)CC3)cc2)c1 | 4.44
86 | COc1cc(OC)cc(OCc2ccc(CCN3CCN(c4ccccc4OC)CC3)cc2)c1 | 4.58
87 | CCOc1ccccc1N1CCN(CCc2ccc(COc3cc(OC)cc(OC)c3)cc2)CC1 | < 4.30
88 | COc1ccc(N2CCN(CCc3ccc(COc4cc(OC)cc(OC)c4)cc3)CC2)cc1 | < 4.30
89 | COc1cc(OC)cc(OCc2ccc(CCN3CCN(c4cccc(OC)c4)CC3)cc2)c1 | 4.70
90 | COc1cc(OC)cc(OCc2ccc(CCN3CCN(c4cc(Cl)ccc4OC)CC3)cc2)c1 | 4.40
91 | COc1cc(OC)cc(OCc2ccc(CCN3CCN(c4ccccc4F)CC3)cc2)c1 | 5.14
92 | COc1cc(OC)cc(OCc2ccc(CCN3CCN(c4ccc(F)cc4)CC3)cc2)c1 | 4.46
93 | COc1cc(OC)cc(OCc2ccc(CCN3CCN(c4ccc(F)cc4F)CC3)cc2)c1 | < 4.30
94 | COc1cc(OC)cc(OCc2ccc(CCN3CCN(c4ccccc4Cl)CC3)cc2)c1 | 4.49
95 | COc1cc(OC)cc(OCc2ccc(CCN3CCN(c4ccc(Cl)cc4)CC3)cc2)c1 | < 4.30
96 | COc1cc(OC)cc(OCc2ccc(CCN3CCN(c4cccc(Cl)c4)CC3)cc2)c1 | 4.44
97 | COc1cc(OC)cc(OCc2ccc(CCN3CCN(c4cccc(Cl)c4Cl)CC3)cc2)c1 | < 4.30
98 | COc1cc(OC)cc(OCc2ccc(CCN3CCN(c4cc(Cl)ccc4C)CC3)cc2)c1 | 5.56
99 | COc1cc(OC)cc(OCc2ccc(CCN3CCN(c4ccc(Br)cc4)CC3)cc2)c1 | < 4.30
100 | COc1cc(OC)cc(OCc2ccc(CCN3CCN(c4ccccc4C(F)(F)F)CC3)cc2)c1 | < 4.30
101 | COc1cc(OC)cc(OCc2ccc(CCN3CCN(c4ccc(C(F)(F)F)cc4)CC3)cc2)c1 | < 4.30
102 | COc1cc(OC)cc(OCc2ccc(CCN3CCN(c4ccc(C#N)cc4)CC3)cc2)c1 | < 4.30
103 | COc1cc(OC)cc(OCc2ccc(CCN3CCN(c4ccccc4S(C)(=O)=O)CC3)cc2)c1 | 6.01
104 | COc1ccccc1N1CCN(CC(O)COc2cccc3ccccc23)CC1 (centres undefined) [NAFTOPIDIL] | 4.65
